In patent US11642335B2, “Chemical synthesis of clopidogrel active metabolites and disulfide conjugate prodrugs” (Board of Regents, The University of Texas System, priority 2019, dated 2023):
Entries after “also recorded” stand apart in the source; their conditions may differ.

What was measured:
[1] = patients treated with CPG; cited from earlier work
antiplatelet activity = details: cited from earlier work
[2] = test system: FeCl3 carotid artery injury-induced thrombosis; experiment: FeCl3 carotid artery injury-induced thrombosis mouse model (in vivo antiplatelet test); details: for occlusion time of thrombosis: tail vein administration of 1 mg/kg, compared to vehicle (negative control) and CPG (positive control), FIG. 14, 1 mg/kg
Description: Referring now to FIGS. 14-18, In vivo antiplatelet test of synthetic H3 and H4 in a FeCl3 carotid artery injury-induced thrombosis mouse model.

P2Y12R = P2Y12R (Homo sapiens, UniProt Q9H244); details: biosynthesized H2, relative to H4; cited from earlier work
Chain of P2Y12R (Q9H244 whole entry): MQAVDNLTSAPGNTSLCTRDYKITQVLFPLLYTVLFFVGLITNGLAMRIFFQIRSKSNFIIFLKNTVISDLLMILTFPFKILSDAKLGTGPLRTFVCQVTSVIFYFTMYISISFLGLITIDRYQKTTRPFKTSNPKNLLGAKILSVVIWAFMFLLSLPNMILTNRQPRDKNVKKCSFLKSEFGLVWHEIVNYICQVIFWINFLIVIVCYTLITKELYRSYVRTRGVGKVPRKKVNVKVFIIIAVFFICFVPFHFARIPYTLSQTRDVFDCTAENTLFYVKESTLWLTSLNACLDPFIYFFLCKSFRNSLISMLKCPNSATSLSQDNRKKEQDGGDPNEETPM

For COC(=O)[C@H](c1ccccc1Cl)N1CC[C@@H](S)/C(=C\C(=O)O)C1 [H4], the “detection as circulating metabolite in patients' plasma” value (“detection as circulating metabolite” for short) [1] is listed as “detected as circulating metabolites”, the “activity in in vitro pharmacological studies (antiplatelet)” value (antiplatelet activity) is listed as “active” and the “stereospecific potency in vivo” value ([2]; synthetic metabolite, mice) is listed as “stereospecific potency in mice; also recorded: stereospecific potency in vivo”. For the same molecule, the “occlusion time of thrombosis” value [2] was “significantly prolong the occlusion time of thrombosis”.
In the case of COC(=O)[C@H](c1ccccc1Cl)N1CC[C@@H](S)/C(=C\C(=O)O)C1 [H3], the “detection as circulating metabolite” value [1] is listed as “detected as circulating metabolites” and the “occlusion time of thrombosis” value [2] is listed as “ineffective”.
For COC(=O)[C@H](c1ccccc1Cl)N1CC[C@@H](S)/C(=C\C(=O)O)C1 [H2], the “detection as circulating metabolite” value [1] is listed as “not detected” and the “potency against P2Y12R in vitro” value (P2Y12R) is listed as “similarly potent as H4”.
